Assay results as given in patent US11660311B2, “Cyclic dinucleotides as anticancer agents” (priority 2017, dated 2023).
Where two headings read alike, the source gives them in different places.

Experiments:
[1] = test system: IRF pathway in THP1-Dual STING reporter cells; experiment: STING THP1 Reporter Assay, IRF pathway (secreted Lucia luciferase); assay type: cell-based, human; settings: 100% = 100 μM cGAMP
Description: (§1) THP1-Dual™ cells were derived from the human THP-1 monocyte cell line by stable integration of two inducible reporter constructs. To this end, THP1-Dual™ cells allow the simultaneous study of the NF-κB pathway, by monitoring the activity of SEAP, and the IRF pathway by assessing the activity of a secreted luciferase (Lucia). Both reporter proteins are readily measurable in the cell culture supernatant when using QUANTI-Blue™, a SEAP detection reagent, and QUANTI-Luc™, a luciferase detection reagent.
(§2) THP1-Dual™ cells induce the activation of NF-κB in response to STING agonists. They also trigger the IRF pathway upon stimulation with STING agonists, such as cGAMP. Here, the THP-1-Dual cells were used to assess STING binders for function on the cellular level.
(§3) Serial dilutions of compounds in DMSO were added to low volume 384 well plates at 100 nl/well using an ECHO acoustic dispenser (Labcyte, model 550) to achieve final starting concentration of 100 μM in cell suspension. […] One column of the plate was reserved for treatment with cGAMP at 100 μM for 100% activation calculation and one column for no treatment (DMSO only) for baseline activation. Plates were then incubated in 37° C. incubator at 5% CO2 for 20 hours.
(§4) In the SEAP assay, 5 μl of 2× QuantiBlue (Invivogen, cat #Rep-qb2) is added to 384 well black plates seeded with THP1 cells and incubated at 37° C. for 2 hours. Plates were read on the Envision (Perkin Elmer) at 620 nm wavelength (OD620). In the luciferase assay, 5 μl of Quantiluc (Invivogen, Rep-qlc2) is added to white 384 well plates seeded with THP1 cells and read at 5 minutes on the Envision (Perkin Elmer) using a luminescence protocol (RLU). For both cell lines, 100% activation was determined by value (RLU) of THP-1 Dual STING cells stimulated with 100 μM cGAMP (Invivogen, cat #TLRL-NACGA23-5).

[2] = test system: NF-κB pathway in THP1-Dual STING reporter cells; experiment: STING THP1 Reporter Assay, NF-κB pathway (SEAP); assay type: cell-based, human; settings: 100% = 100 μM cGAMP
Description: as §1, §2, §3, §4

[3] = target: T1, STING WT: His-TVMV-S-hSTING(155-341)-H232R (Homo sapiens, UniProt Q86WV6, H232R); experiment: STING HTRF Binding Assay, STING WT; settings: 20 nM His-tagged STING cytoplasmic domain, 200 nM fluorescein-labeled cGAMP analog probe, one hour; read-out: HTRF Binding Assays IC50 (μM) STING WT
T1 construct: STING WT: His-TVMV-S-hSTING(155-341)-H232R
T1 sequence (Q86WV6 with tags, fused parts or gaps H232R): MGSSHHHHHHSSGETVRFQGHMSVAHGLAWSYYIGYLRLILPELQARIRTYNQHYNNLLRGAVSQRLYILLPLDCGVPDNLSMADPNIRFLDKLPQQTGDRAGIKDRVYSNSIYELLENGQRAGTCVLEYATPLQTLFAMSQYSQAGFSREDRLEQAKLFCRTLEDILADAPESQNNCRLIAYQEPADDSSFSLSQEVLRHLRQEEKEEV
Method: (§5) A time resolved FRET-based competition binding assay was used to assess test article binding to STING WT and STING AQ. His-tagged STING cytoplasmic domain (WT or AQ) at a concentration of 20 nM was incubated with 2.5 nM Tb-labeled anti-His antibody, test compound, and fluorescein-labeled cGAMP analog probe (BioLog cat. no. C195) at a concentration of 200 nM (STING WT) or 40 nM (STING AQ) in PBS containing 0.005% Tween-20 and 0.1% BSA for one hour. Fluorescence at 495 nm and 520 nm was measured using an EnVision microplate reader to quantify FRET between Tb-labeled anti-His antibody and fluorescein-labeled probe. Background was defined as the signal obtained in the absence of STING protein, and background subtracted FRET ratios were normalized to the maximum signal obtained in the absence of test compound. These values were converted to a percent inhibition. Percent inhibition was determined for test compounds at 11 concentrations. The IC50, defined as the concentration of competing test compound needed to reduce specific binding of the probe by 50%, was calculated using the 4 parameter logistic equation to fit the data

[4] = target: T2, STING AQ: His-TVMV-S-hSTING(155-341)-G230A-R293Q (Homo sapiens, UniProt Q86WV6, G230A/H232R/R293Q); experiment: STING HTRF Binding Assay, STING AQ; settings: 20 nM His-tagged STING cytoplasmic domain, 40 nM fluorescein-labeled cGAMP analog probe, one hour; read-out: HTRF Binding Assays IC50 (μM) STING AQ
T2 construct: STING AQ: His-TVMV-S-hSTING(155-341)-G230A-R293Q
T2 sequence (Q86WV6 with tags, fused parts or gaps G230A/H232R/R293Q): as the sequence (Q86WV6 with tags, fused parts or gaps H232R) above, with G99A, R162Q counted along it
Method: as §5

[5] = read-out: THP1 Reporter Assays EC50 (μM) IRF3, THP1-Dual cells, 10% human plasma, 20 hours, luciferase
[6] = read-out: THP1 Reporter Assays EC50 (μM) NFkB, THP1-Dual cells, 10% human plasma, 20 hours, SEAP
[7] = THP1-Dual cells, 10% human plasma, 20 hours, luciferase, read-out: THP1 Reporter Assays EC50 (μM) IRF3
[8] = THP1-Dual cells, 10% human plasma, 20 hours, SEAP, read-out: THP1 Reporter Assays EC50 (μM) NFkB
[9] = Homo sapiens, THP1-Dual, 20 h, THP1-Dual cells, 10% human plasma, 20 hours, luciferase, read-out: THP1 Reporter Assays EC50 (μM) IRF3
[10] = Homo sapiens, THP1-Dual, 20 h, THP1-Dual cells, 10% human plasma, 20 hours, SEAP, read-out: THP1 Reporter Assays EC50 (μM) NFkB
[11] = Homo sapiens, THP1-Dual, 20 h, read-out: THP1 Reporter Assays EC50 (μM) NFkB, THP1-Dual cells, 10% human plasma, 20 hours, SEAP
[12] = Homo sapiens, THP1-Dual, 20 h, read-out: THP1 Reporter Assays EC50 (μM) IRF3, THP1-Dual cells, 10% human plasma, 20 hours, luciferase

Nc1ncnc2c1ncn2[C@@H]1O[C@@H]2COP(=O)(S)O[C@H]3[C@@H](O)[C@H](n4cnc5c4ncn4ncnc54)O[C@@H]3COP(=O)(O)O[C@H]2[C@H]1F (single isomer, unassigned) [Example 10-2]
EC50 [1, 5]: 3.69 µM | EC50 [2, 6]: 8.99 µM | IC50 [3]: 0.05 µM

NC(=O)c1cc([C@@H]2O[C@@H]3COP(=O)(S)O[C@H]4[C@@H](F)[C@H](n5cnc6c(N)ncnc65)O[C@@H]4COP(=O)(S)O[C@H]3[C@H]2O)[nH]n1 (single isomer, unassigned) [Example 6-2]
EC50 [1, 7]: > 100 µM | EC50 [2, 8]: > 100 µM | IC50 [3]: 88.6 µM | IC50 [4]: 5.75 µM

O=c1[nH]cnc2c1ncn2[C@@H]1O[C@@H]2COP(=O)(O)O[C@H]3[C@@H](O)[C@H](n4cnc5c4ncn4ccnc54)O[C@@H]3COP(=O)(O)O[C@H]2[C@H]1O [Example 18]
EC50 [1, 9]: > 100 µM | EC50 [2, 10]: > 100 µM | IC50 [3]: 25.3 µM | IC50 [4]: 0.49 µM

Nc1ncnc2c1ncn2[C@@H]1O[C@@H]2COP(=O)(S)O[C@H]3[C@@H](F)[C@H](n4cnc5c4ncn4ccnc54)O[C@@H]3COP(=O)(S)O[C@H]2[C@H]1F (single isomer, unassigned) [Example 21-4]
EC50 [1, 5]: 0.28 µM | EC50 [2, 6]: 0.67 µM | IC50 [3]: 0.01 µM | IC50 [4]: 0.01 µM

Nc1nc2c(ncn2[C@@H]2O[C@@H]3COP(=O)(O)O[C@H]4[C@@H](O)[C@H](n5cnc6c(N)ncnc65)O[C@@H]4COP(=O)(S)O[C@H]3[C@H]2O)c(=O)[nH]1 (stereo partly drawn) [Example 15, (1S,8R,9R,10S,15R,17R,18R)-8-(2-amino-6-oxo-6,9-dihydro-1H-purin-9-yl)-17-(6-amino-9H-purin-9-yl)-3,9,18-trihydroxy-12-sulfanyl-2,4,7,11,13,16-hexaoxa-3λ^5,12λ^5-diphosphatricyclo[13.3.0.0^6,10]octadecane-3,12-dione]
EC50 [1, 9]: > 100 µM | EC50 [2, 10]: > 100 µM | IC50 [3]: 9.55 µM | IC50 [4]: 0.83 µM

NC(=O)c1cccc2c1nnn2[C@@H]1O[C@@H]2COP(=O)(S)O[C@H]3[C@@H](F)[C@H](n4cnc5c(N)ncnc54)O[C@@H]3COP(=O)(S)O[C@H]2[C@H]1F (single isomer, unassigned) [Example 4-3]
EC50 [1, 7]: > 100 µM | EC50 [2, 8]: > 100 µM | IC50 [3]: 12 µM | IC50 [4]: 0.39 µM

NC(=O)c1cccc2c1nnn2[C@@H]1O[C@@H]2COP(=O)(S)O[C@H]3[C@@H](F)[C@H](n4cnc5c(N)ncnc54)O[C@@H]3COP(=O)(S)O[C@H]2[C@H]1F (single isomer, unassigned) [Example 4-1]
EC50 [1, 7]: > 100 µM | EC50 [2, 8]: > 100 µM | IC50 [3]: > 100 µM | IC50 [4]: 17.8 µM

NC(=O)c1cccc2c1nnn2[C@@H]1O[C@@H]2COP(=O)(O)O[C@H]3[C@@H](F)[C@H](n4cnc5c(N)ncnc54)O[C@@H]3COP(=O)(O)O[C@H]2[C@H]1F [Example 7, 1-[(1R,6R,8R,9R,10R,15R,17R,18R)-17-(6-amino-9H-purin-9-yl)-9,18-difluoro-3,12-dihydroxy-3,12-dioxo-2,4,7,11,13,16-hexaoxa-3λ^5,12λ^5-diphosphatricyclo[13.3.0.0^6,10]octadecan-8-yl]-1H-1,2,3-benzotriazole-4-carboxamide]
EC50 [1, 9]: > 100 µM | EC50 [2, 11]: > 100 µM | IC50 [3]: 11.9 µM | IC50 [4]: 0.31 µM

Nc1ncnc2c1ncn2[C@@H]1O[C@@H]2COP(=O)(S)O[C@H]3[C@@H](F)[C@H](n4cnc5c4ncn4ccnc54)O[C@@H]3COP(=O)(S)O[C@H]2[C@H]1F (single isomer, unassigned) [Example 21-2]
EC50 [1, 5]: 0.13 µM | EC50 [2, 6]: 0.56 µM | IC50 [3]: 0.02 µM | IC50 [4]: 0.01 µM

NC(=O)c1cccc2c1nnn2[C@@H]1O[C@@H]2COP(=O)(O)O[C@H]3[C@@H](F)[C@H](n4cnc5c(N)ncnc54)O[C@@H]3COP(=O)(S)O[C@H]2[C@H]1F (single isomer, unassigned) [Example 8-2]
EC50 [1, 7]: > 100 µM | EC50 [2, 8]: > 100 µM | IC50 [3]: 2.23 µM | IC50 [4]: 0.07 µM

O=P1(O)OC[C@H]2O[C@@H](n3cnc4c3ncn3ccnc43)[C@H](O)[C@@H]2OP(=O)(O)OC[C@H]2O[C@@H](n3cnc4c3ncn3ccnc43)[C@H](O)[C@@H]2O1 [Example 19]
EC50 [1, 9]: > 100 µM | EC50 [2, 10]: > 100 µM | IC50 [3]: 28.6 µM | IC50 [4]: 0.65 µM

Nc1ncnc2c1ncn2[C@@H]1O[C@@H]2COP(=O)(S)O[C@H]3[C@@H](O)[C@H](n4cnc5c(=O)n6ccnc6[nH]c54)O[C@@H]3COP(=O)(S)O[C@H]2[C@H]1F (single isomer, unassigned) [Example 1-1]
EC50 [1, 7]: 0.38 µM | EC50 [2, 8]: 0.94 µM | IC50 [3]: 0.02 µM | IC50 [4]: 0.01 µM

Nc1ncnc2c1ncn2[C@@H]1O[C@@H]2COP(=O)(S)O[C@H]3[C@@H](O)[C@H](n4cnc5c(=O)[nH]c6nccn6c54)O[C@@H]3COP(=O)(S)O[C@H]2[C@H]1F (mixture of isomers) [Example 5, (1S,6R,8R,9R,10R,15R,17R,18R)-8-(6-amino-9H-purin-9-yl)-9-fluoro-18-hydroxy-17-{4-oxo-1H,4H,5H-imidazo[2,1-b]purin-1-yl}-3,12-disulfanyl-2,4,7,11,13,16-hexaoxa-3λ^5,12λ^5-diphosphatricyclo[13.3.0.0^6,10]octadecane-3,12-dione]
EC50 [1, 12]: 0.49 µM | EC50 [2, 11]: 1.35 µM | IC50 [3]: 0.004 µM | IC50 [4]: 0.001 µM

Nc1nc2c(ncn2[C@@H]2O[C@@H]3COP(=O)(O)O[C@H]4[C@@H](O)[C@H](n5cnc6c5ncn5ccnc65)O[C@@H]4COP(=O)(S)O[C@H]3[C@H]2O)c(=O)[nH]1 (stereo partly shown) [Example 16]
EC50 [1, 9]: > 100 µM | EC50 [2, 10]: > 100 µM | IC50 [3]: 96 µM | IC50 [4]: 5.65 µM

Nc1ncnc2c1ncn2[C@@H]1O[C@@H]2COP(=O)(O)O[C@H]3[C@@H](O)[C@H](n4cnc5c4ncn4ncnc54)O[C@@H]3COP(=O)(O)O[C@H]2[C@H]1F [Example 11, (1S,6R,8R,9R,10R,15R,17R,18R)-8-(6-amino-9H-purin-9-yl)-9-fluoro-3,12,18-trihydroxy-17-{3H-[1,2,4]triazolo[3,2-f]purin-3-yl}-2,4,7,11,13,16-hexaoxa-3λ^5,12λ^5-diphosphatricyclo[13.3.0.0^6,10]octadecane-3,12-dione]
EC50 [1, 12]: 8.35 µM | EC50 [2, 11]: 16 µM | IC50 [3]: 0.23 µM
